These results are taken from PubChem BioAssay AID977613 (Broad Institute, 2014).

Each structure is given as a SMILES string. The source made the active and inactive calls. The rule behind the calls is not given here. A value given as a limit tells only on which side of the number the result lay.

The test system of this assay is Broad 7084-01 inhibitor HTS, set 2. As to the kind of experiment: inhibitors in Broad screen 7084-01, set 2 (AID 977613).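 Note: host cells are infected with parasite promastigotes that become internalized.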

Take `OC[C@@H]1[C@H](c2ccc(C#CC3(O)CCCC3)cc2)[C@@H]2CN(Cc3cncnc3)CCCCN12`: the active concentration was > 10 µM (inactive).

As for `CC(C)NC(=O)Nc1ccc2c(c1)C(=O)N(C)[C@@H]1CC[C@@H](CC(=O)NCc3ccc(F)cc3)O[C@H]1CO2`, the active concentration was > 10 µM (inactive).

As to `COc1ccccc1CN1[C@H](CO)[C@@H]2c3ccccc3N(C(=O)c3cccnc3)C[C@@H]21`, the active concentration is > 10 µM (inactive).

In the case of `CCS(=O)(=O)N1CC2(C1)CN(S(=O)(=O)c1ccccc1)[C@H](CO)c1c2c2ccc(OC)cc2n1C`, the active concentration is > 10 µM (inactive).

On to `O=C(C1CCC1)N1CC2(C1)[C@H](c1ccccc1)[C@H](CO)N2Cc1cccnc1`, for which the active concentration was > 10 µM (inactive).

As to `Cc1nn(C)cc1NC(=O)C[C@@H]1CC[C@@H]2[C@H](COc3ccc(NC(=O)C4CCOCC4)cc3C(=O)N2C)O1`, the active concentration was > 10 µM (inactive).

For `N#C[C@@H]1[C@H](c2ccccc2-c2ccccc2)[C@H](CO)N1C(=O)Cc1ccncc1`, the active concentration is > 10 µM (inactive).

With `CCS(=O)(=O)Nc1ccc2c(c1)C(=O)N(C)[C@H]1CC[C@H](CC(=O)N[C@@H]3CCN(Cc4ccccc4)C3)O[C@H]1CO2`, the active concentration was > 10 µM (inactive).

As for `CN1C(=O)c2cc(NC(=O)c3cnccn3)ccc2OC[C@@H]2O[C@H](CC(=O)NCC3CCCCC3)CC[C@H]21`, the active concentration is > 10 µM (inactive).

Regarding `O=C(C[C@@H]1CC[C@@H]2[C@H](COC[C@H](O)CN2CC2CC2)O1)NCc1ccc(Cl)cc1`, the active concentration is > 10 µM (inactive).

For `N#C[C@@H]1[C@H](c2ccccc2C2=CCCC2)[C@@H](CO)N1C(=O)CN1CCOCC1`, the active concentration was > 10 µM (inactive).

`C/C=C/c1ccc([C@H]2[C@H](CO)N(S(=O)(=O)Cc3ccccc3)C23CN(C(=O)C2CCCC2)C3)cc1`: the active concentration is > 10 µM (inactive).

For `CCCN1[C@@H]2c3ccc(C4=CCCCC4)c(=O)n3C[C@@H]2[C@@H](CO)[C@@H]1C(=O)NC1Cc2ccccc2C1`, the active concentration was > 10 µM (inactive).

With `COc1ccc2c3c([nH]c2c1)[C@@H](CO)N(C(=O)c1ccc(F)cc1)CC31CCN(S(=O)(=O)c2cccs2)CC1`, the active concentration was > 10 µM (inactive).

As to `O=S(=O)(c1ccccc1F)N1CC[C@@H]2[C@H]1c1cc(-c3ccccc3F)ccc1N[C@@H]2CO`, the active concentration is > 10 µM (inactive).

As for `COc1ccc2c3c(n(C)c2c1)[C@H](CO)N(CC1CCOCC1)CC31CCN(C(=O)CN(C)C)CC1`, the active concentration is > 10 µM (inactive).

Regarding `COc1ccc(CN2[C@@H]3CN(C(=O)Nc4ccc(F)cc4)c4ccccc4[C@@H]3[C@@H]2CO)cc1`, the active concentration is > 10 µM (inactive).

As to `COCC(=O)N1CC[C@H]2[C@@H]1c1cc(-c3ccc(F)cc3)ccc1N(C)[C@H]2CO`, the active concentration is > 10 µM (inactive).

Turning to `O=C(C[C@H]1CC[C@@H]2[C@H](COC[C@@H](O)CN2C(=O)Nc2ccc(Cl)cc2)O1)NCC1CC1`, the active concentration was > 10 µM (inactive).

On to `CC=Cc1ccc2n(c1=O)C[C@@H]1[C@@H](CO)[C@H](C(=O)N[C@@H](C)c3ccccc3)N(C(=O)c3cnccn3)[C@H]21` (mixture of isomers), for which the active concentration was > 10 µM (inactive).

For `Cc1noc(C)c1NC(=O)N1C[C@H](O)COC[C@H]2O[C@H](CC(=O)NCC3CCCCC3)CC[C@@H]21`, the active concentration was > 10 µM (inactive).

Take `O=C(Nc1cccc(F)c1)N1C[C@@H]2[C@H](c3ccccc31)[C@@H](CO)N2C(=O)Cc1ccccn1`: the active concentration was > 10 µM (inactive).

As for `N#C[C@H]1[C@@H](c2ccccc2-c2ccccc2F)[C@@H](CO)N1C(=O)Cc1ccccc1`, the active concentration was > 10 µM (inactive).

In the case of `CN1c2ccc(Br)cc2[C@H]2[C@H](CCN2S(=O)(=O)c2cccc(F)c2)[C@@H]1CO`, the active concentration is > 10 µM (inactive).

As for `COc1cccc(NC(=O)N2C[C@H](O)COC[C@H]3O[C@H](CC(=O)NC4CCC4)CC[C@@H]32)c1`, the active concentration is > 10 µM (inactive).

For `CCC(=O)N1[C@@H](CO)[C@@H]2c3ccccc3N(S(=O)(=O)c3ccccc3C)C[C@@H]21`, the active concentration was > 10 µM (inactive).

Take `COc1ccc(NC(=O)N2CCCCN3[C@H](C2)[C@H](c2ccc(-c4ccccc4F)cc2)[C@@H]3CO)cc1`: the active concentration is > 10 µM (inactive).

For the compound `COc1cc(CN2CC3(CN(C(=O)CN4CCOCC4)C3)c3c(n(C)c4cc(OC)ccc34)[C@@H]2CO)cc(OC)c1`, the active concentration was > 10 µM (inactive).

Regarding `O=C(c1ccccc1F)N1CC(=O)N2[C@H](CO)[C@@H](c3ccc(C#Cc4ccccc4)cc3)[C@@H]2C1`, the active concentration is > 10 µM (inactive).

Regarding `O=C(c1ccncc1)N1C[C@@H]2[C@H](c3ccccc31)[C@H](CO)N2Cc1ccccc1F`, the active concentration is > 10 µM (inactive).

For `CN1c2ccc(-c3ccccc3F)cc2[C@@H]2[C@@H](CCN2C(=O)Cc2ccccn2)[C@@H]1CO`, the active concentration was > 10 µM (inactive).

Consider `N#C[C@@H]1[C@H](c2ccccc2C2=CCCCC2)[C@H](CO)N1C(=O)c1cccc(F)c1`, for which the active concentration is > 10 µM (inactive).

Regarding `CN(C)C(=O)c1cccc(-c2ccc([C@H]3[C@H](CO)N4C(=O)CN(C(=O)C5CCC5)C[C@@H]34)cc2)c1`, the active concentration was > 10 µM (inactive).

With `CC(C)NC(=O)N1CC2(C1)[C@H](c1ccccc1)[C@@H](CO)N2C(=O)C1CCCC1`, the active concentration is > 10 µM (inactive).

In the case of `O=C(c1cccnc1)N1CC2(C1)[C@H](c1ccccc1)[C@@H](CO)N2Cc1ccc(Cl)cc1`, the active concentration was > 10 µM (inactive).

For the compound `CC(C)NC(=O)N1[C@H](CO)[C@@H](c2ccccc2-c2ccc(F)cc2)[C@@H]1C#N`, the active concentration was > 10 µM (inactive).

For the compound `O=C(Cc1ccccn1)N1[C@H](CO)[C@H]2c3ccccc3NC[C@H]21`, the active concentration was > 10 µM (inactive).

`CC(C)CC#Cc1ccc([C@H]2[C@H]3CN(S(=O)(=O)c4cccc(F)c4)CC(=O)N3[C@H]2CO)cc1`: the active concentration is > 10 µM (inactive).

As to `O=C(C[C@H]1CC[C@@H]2[C@H](COC[C@@H](O)CN2S(=O)(=O)c2cccc(Cl)c2)O1)Nc1ccc(-c2ccccc2)cc1`, the active concentration is > 10 µM (inactive).

Regarding `COc1ccc(C#Cc2ccc3c(c2)[C@H]2[C@H](CCN2C(=O)c2cccc(F)c2)[C@@H](CO)N3)cc1`, the active concentration was > 10 µM (inactive).

Regarding `C/C=C/c1ccc([C@H]2[C@@H](CO)N3C(=O)CN(C(=O)c4ccncc4)C[C@@H]23)cc1`, the active concentration was > 10 µM (inactive).

On to `CCN1CC(=O)N2[C@@H](CO)[C@@H](c3ccc(Br)cc3)[C@@H]2C1`, for which the active concentration was > 10 µM (inactive).

As for `N#C[C@@H]1[C@H](c2ccccc2C2=CCCCC2)[C@@H](CO)N1C(=O)C1CCOCC1`, the active concentration was > 10 µM (inactive).

In the case of `COc1ccccc1CN1CC[C@@H]2[C@H](CO)Nc3ccc(C#Cc4ccccc4)cc3[C@@H]21`, the active concentration was > 10 µM (inactive).

For `Cn1cnc(S(=O)(=O)N2C[C@@H](O)COC[C@@H]3O[C@@H](CC(=O)NC4CCCC4)CC[C@H]32)c1`, the active concentration is > 10 µM (inactive).

As to `O=C(c1cccc(F)c1)N1C[C@@H]2[C@H](c3ccccc31)[C@H](CO)N2Cc1cocn1`, the active concentration is > 10 µM (inactive).

As to `COCC#Cc1ccc([C@@H]2[C@H](CO)N3C(=O)CN(C(=O)Nc4ccccc4F)C[C@@H]23)cc1`, the active concentration was > 10 µM (inactive).

As to `Cc1ccccc1-c1ccccc1[C@H]1[C@@H](C#N)N(C(=O)c2cccc(F)c2)[C@H]1CO`, the active concentration is > 10 µM (inactive).

As for `N#C[C@@H]1[C@H](c2ccccc2-c2ccc(F)cc2)[C@H](CO)N1C(=O)Cc1cccnc1`, the active concentration is > 10 µM (inactive).

On to `Cc1ccccc1-c1ccc([C@@H]2[C@@H](CO)N3C(=O)CN(S(C)(=O)=O)C[C@H]23)cc1`, for which the active concentration is > 10 µM (inactive).

With `O=C(C[C@@H]1CC[C@H]2[C@@H](COC[C@H](O)CN2CCC(F)(F)F)O1)NCC1CC1`, the active concentration is > 10 µM (inactive).

Consider `CN1C(=O)c2cc(NC(=O)C3CCOCC3)ccc2OC[C@H]2O[C@@H](CC(=O)NCCc3ccncc3)CC[C@H]21`, for which the active concentration is > 10 µM (inactive).

Turning to `COc1cccc(NC(=O)Nc2ccc3c(c2)C(=O)N(C)[C@H]2CC[C@@H](CC(=O)NCCc4ccccc4)O[C@H]2CO3)c1`, the active concentration is > 10 µM (inactive).

As for `COC(=O)c1ccc(CN2CC(=O)N3[C@H](CO)[C@@H](c4ccc(-c5cccnc5)cc4)[C@H]3C2)cc1`, the active concentration is > 10 µM (inactive).

As for `CC(=O)N1[C@@H]2c3ccc(-c4cccc(F)c4)c(=O)n3C[C@@H]2[C@@H](CO)[C@@H]1C(=O)NCCCN(C)C`, the active concentration is > 10 µM (inactive).

On to `COc1cccc(CN2CC3(C2)[C@H](c2ccccc2)[C@H](CO)N3C(=O)Cc2ccccc2)c1`, for which the active concentration is > 10 µM (inactive).

For the compound `COc1ccc2c3c(n(C)c2c1)[C@H](CO)N(C)CC31CCN(S(=O)(=O)c2cccc(F)c2)CC1`, the active concentration was > 10 µM (inactive).

With `Cc1cccc(S(=O)(=O)N2C[C@@H](O)COC[C@@H]3O[C@H](CC(=O)Nc4ccccc4)CC[C@H]32)c1`, the active concentration was > 10 µM (inactive).

`C/C=C/c1ccccc1[C@H]1[C@@H](C#N)N(C(=O)NC2CCCCC2)[C@H]1CO`: the active concentration is > 10 µM (inactive).

On to `COc1ccccc1S(=O)(=O)N1CC[C@@H]2[C@H]1c1cc(-c3ccc(C#N)cc3)ccc1N[C@@H]2CO`, for which the active concentration was > 10 µM (inactive).

For the compound `CC(C)C#Cc1ccc([C@H]2[C@H](CO)N3C(=O)CN(C(=O)Cc4ccccc4)C[C@@H]23)cc1`, the active concentration is > 10 µM (inactive).

In the case of `O=C(NCC(F)(F)F)[C@H]1[C@H](CO)[C@H]2Cn3c(cccc3=O)[C@H]2N1Cc1cccc(F)c1`, the active concentration was > 10 µM (inactive).

Regarding `O=C(C[C@H]1CC[C@H]2[C@@H](COC[C@@H](O)CN2CCc2ccccc2)O1)NCc1ccc(F)cc1`, the active concentration is > 10 µM (inactive).

In the case of `O=C1CN(S(=O)(=O)Cc2ccccc2)C[C@@H]2[C@H](c3ccc(C#Cc4ccccc4)cc3)[C@H](CO)N12`, the active concentration was > 10 µM (inactive).
